Results as given in ChEMBL document CHEMBL4800729 (2021).

Tests used:
[1] = target: MAP/microtubule affinity-regulating kinase 4 (Homo sapiens) (UniProt Q96L34); experiment: MARK4(h) Millipore kinase panel; details: Compound concentration 1.0 uM
[2] = target: Ribosomal protein S6 kinase beta-1 (Homo sapiens) (UniProt P23443); experiment: p70S6K(h) Millipore kinase panel; details: Compound concentration 1.0 uM
[3] = target: Serine/threonine-protein kinase pim-1 (Homo sapiens) (UniProt P11309); experiment: Pim-1(h) Millipore kinase panel; details: Compound concentration 1.0 uM
Sequence of Serine/threonine-protein kinase pim-1 (Homo sapiens) (P11309 whole entry, looked up): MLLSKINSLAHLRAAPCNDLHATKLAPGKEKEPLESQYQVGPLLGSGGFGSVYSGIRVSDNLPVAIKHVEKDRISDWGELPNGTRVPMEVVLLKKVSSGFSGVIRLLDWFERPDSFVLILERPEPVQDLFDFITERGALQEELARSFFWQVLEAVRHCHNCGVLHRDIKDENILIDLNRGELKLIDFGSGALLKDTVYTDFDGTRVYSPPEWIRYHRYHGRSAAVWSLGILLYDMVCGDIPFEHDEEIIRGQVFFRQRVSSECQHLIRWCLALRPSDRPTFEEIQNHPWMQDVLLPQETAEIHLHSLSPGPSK

[4] = target: Serine/threonine-protein kinase PLK4 (Homo sapiens) (UniProt O00444); experiment: Plk4(h) Millipore kinase panel; details: Compound concentration 1.0 uM
Sequence of Serine/threonine-protein kinase PLK4 (Homo sapiens) (O00444 whole entry): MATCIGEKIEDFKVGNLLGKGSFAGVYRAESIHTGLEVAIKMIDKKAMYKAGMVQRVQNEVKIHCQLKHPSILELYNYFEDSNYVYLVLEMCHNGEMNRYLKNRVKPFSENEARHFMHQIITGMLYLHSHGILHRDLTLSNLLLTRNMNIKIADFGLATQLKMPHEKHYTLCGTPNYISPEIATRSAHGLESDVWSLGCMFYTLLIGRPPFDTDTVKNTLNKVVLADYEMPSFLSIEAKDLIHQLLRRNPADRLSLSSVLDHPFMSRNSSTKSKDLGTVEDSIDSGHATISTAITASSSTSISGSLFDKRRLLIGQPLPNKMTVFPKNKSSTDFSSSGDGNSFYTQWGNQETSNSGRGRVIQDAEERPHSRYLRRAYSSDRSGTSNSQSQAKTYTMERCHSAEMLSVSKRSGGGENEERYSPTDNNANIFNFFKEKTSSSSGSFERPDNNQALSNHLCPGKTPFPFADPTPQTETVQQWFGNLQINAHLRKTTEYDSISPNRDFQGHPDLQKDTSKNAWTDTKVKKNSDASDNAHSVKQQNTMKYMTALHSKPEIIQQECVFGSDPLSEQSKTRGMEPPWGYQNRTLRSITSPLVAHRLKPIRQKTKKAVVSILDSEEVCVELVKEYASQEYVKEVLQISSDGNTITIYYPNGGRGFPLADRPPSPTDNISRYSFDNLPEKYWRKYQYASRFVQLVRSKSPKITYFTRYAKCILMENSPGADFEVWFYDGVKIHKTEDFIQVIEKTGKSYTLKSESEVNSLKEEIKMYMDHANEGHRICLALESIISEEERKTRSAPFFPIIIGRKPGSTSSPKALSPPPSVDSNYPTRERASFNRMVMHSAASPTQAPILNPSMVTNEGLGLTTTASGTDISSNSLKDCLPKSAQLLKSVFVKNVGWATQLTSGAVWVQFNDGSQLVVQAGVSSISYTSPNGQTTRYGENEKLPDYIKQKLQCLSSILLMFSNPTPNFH

[5] = target: Macrophage-stimulating protein receptor (Homo sapiens) (UniProt Q04912); experiment: Ron(h) Millipore kinase panel; details: Compound concentration 1.0 uM
Sequence of Macrophage-stimulating protein receptor (Homo sapiens) (Q04912 25-304 limits assumed): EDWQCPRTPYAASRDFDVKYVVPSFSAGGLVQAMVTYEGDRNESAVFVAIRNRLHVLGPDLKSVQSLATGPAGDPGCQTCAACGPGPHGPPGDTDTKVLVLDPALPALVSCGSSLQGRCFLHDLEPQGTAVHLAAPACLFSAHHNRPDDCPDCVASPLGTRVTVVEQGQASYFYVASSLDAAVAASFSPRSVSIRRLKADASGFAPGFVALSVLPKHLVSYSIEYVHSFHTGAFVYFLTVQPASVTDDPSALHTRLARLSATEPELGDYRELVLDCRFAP
Sequence of Macrophage-stimulating protein receptor (Homo sapiens) (Q04912 310-1400 limits assumed): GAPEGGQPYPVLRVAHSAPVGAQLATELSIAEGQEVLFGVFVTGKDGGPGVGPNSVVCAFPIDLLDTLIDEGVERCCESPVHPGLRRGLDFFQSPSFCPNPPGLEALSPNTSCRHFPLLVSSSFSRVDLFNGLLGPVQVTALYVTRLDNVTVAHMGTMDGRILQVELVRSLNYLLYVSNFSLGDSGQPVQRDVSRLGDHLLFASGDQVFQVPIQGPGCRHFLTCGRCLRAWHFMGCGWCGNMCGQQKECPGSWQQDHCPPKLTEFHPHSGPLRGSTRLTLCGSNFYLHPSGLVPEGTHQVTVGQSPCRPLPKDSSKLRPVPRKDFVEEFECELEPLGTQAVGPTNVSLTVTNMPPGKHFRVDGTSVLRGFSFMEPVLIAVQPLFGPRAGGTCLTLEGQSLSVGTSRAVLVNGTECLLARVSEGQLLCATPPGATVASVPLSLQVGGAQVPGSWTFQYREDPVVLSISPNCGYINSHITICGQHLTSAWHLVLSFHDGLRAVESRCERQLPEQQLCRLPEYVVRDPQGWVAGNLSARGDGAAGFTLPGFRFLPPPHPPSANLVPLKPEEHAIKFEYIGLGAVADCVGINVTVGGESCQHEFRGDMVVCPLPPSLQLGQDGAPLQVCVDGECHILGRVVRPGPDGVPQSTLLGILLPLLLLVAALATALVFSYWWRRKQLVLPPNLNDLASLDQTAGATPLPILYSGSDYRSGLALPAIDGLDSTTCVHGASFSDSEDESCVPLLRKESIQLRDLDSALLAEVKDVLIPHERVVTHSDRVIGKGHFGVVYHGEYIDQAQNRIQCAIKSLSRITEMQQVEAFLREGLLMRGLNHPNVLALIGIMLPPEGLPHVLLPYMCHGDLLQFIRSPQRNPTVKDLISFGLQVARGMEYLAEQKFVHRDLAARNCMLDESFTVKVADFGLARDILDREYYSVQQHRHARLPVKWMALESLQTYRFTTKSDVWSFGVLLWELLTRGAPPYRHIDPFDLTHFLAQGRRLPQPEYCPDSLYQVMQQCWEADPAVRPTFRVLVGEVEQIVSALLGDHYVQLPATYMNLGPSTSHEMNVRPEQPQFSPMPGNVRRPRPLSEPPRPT

[6] = target: T1, Muscarinic acetylcholine receptor M1 (Homo sapiens) (UniProt P11229); details: Compound concentration 10.0 uM
T1 sequence (whole entry): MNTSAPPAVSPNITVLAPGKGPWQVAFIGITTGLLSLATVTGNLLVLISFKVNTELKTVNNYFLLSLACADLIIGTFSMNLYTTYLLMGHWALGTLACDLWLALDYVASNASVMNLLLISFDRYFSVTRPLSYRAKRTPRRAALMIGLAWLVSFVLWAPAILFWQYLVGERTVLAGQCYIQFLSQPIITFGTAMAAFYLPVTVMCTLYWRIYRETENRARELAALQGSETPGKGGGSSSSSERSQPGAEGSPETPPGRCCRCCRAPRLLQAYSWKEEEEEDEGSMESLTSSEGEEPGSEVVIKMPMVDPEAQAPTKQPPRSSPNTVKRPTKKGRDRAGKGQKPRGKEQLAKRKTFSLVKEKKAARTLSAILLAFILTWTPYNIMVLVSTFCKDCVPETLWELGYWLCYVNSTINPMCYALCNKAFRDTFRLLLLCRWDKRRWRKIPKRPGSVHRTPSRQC

Measured: inhibition

Sequence of Ribosomal protein S6 kinase beta-1 (Homo sapiens) (P23443 whole entry, looked up): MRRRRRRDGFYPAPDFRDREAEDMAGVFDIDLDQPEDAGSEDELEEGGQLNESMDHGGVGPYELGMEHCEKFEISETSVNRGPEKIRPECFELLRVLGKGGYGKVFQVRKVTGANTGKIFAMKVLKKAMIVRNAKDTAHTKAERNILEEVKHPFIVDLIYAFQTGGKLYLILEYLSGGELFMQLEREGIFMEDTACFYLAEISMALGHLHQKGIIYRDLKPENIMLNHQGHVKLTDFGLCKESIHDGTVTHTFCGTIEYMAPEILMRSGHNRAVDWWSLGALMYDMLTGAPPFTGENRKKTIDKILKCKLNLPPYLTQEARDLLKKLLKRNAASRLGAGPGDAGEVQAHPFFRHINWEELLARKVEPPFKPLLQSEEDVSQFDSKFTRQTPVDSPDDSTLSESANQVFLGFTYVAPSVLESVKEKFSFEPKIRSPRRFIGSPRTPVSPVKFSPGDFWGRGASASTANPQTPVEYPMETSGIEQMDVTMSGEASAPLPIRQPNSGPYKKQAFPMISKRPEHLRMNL
Sequence of MAP/microtubule affinity-regulating kinase 4 (Homo sapiens) (Q96L34 whole entry): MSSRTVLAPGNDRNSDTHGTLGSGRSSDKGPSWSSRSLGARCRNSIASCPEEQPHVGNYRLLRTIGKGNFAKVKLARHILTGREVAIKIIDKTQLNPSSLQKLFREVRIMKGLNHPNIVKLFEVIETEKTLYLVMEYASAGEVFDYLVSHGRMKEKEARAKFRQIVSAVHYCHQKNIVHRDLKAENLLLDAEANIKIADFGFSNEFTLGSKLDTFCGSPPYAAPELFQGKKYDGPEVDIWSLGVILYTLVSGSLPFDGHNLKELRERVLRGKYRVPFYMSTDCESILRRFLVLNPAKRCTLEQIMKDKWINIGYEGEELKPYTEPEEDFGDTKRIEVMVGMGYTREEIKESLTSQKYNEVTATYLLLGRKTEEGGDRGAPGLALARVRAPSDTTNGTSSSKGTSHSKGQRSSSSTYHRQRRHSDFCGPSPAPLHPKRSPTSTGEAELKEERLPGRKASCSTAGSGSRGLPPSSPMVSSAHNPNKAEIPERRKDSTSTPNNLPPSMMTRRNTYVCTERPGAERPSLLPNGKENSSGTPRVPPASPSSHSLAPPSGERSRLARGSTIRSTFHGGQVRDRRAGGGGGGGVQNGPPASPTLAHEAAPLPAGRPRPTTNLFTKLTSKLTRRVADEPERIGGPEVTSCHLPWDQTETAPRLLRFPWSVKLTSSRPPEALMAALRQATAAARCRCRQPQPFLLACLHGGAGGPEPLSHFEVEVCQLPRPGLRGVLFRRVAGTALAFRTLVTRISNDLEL

CC[C@@H](Nc1c(C#N)c(-c2ccc(-c3cccc(C)c3F)cc2)nc2cnccc12)C(=O)O [BAY-091]
inactive: [1] 5.8% | [2] 4.3% | [3] -2.53% | [4] -8.83% | [5] 0.76% | [6] -5.6%
